Laboratory results: patent US7649002B2, “(3,5-dimethylpiperidin-1yl)(4-phenylpyrrolidin-3-yl)methanone derivatives as MCR4 agonists” (Pfizer Inc, priority 2004, dated 2010)

Key:
[1] = target: T1, human MCR4 receptor (Homo sapiens, UniProt P32245); test: MCR4 standard functional assay (Protocol C): cAMP AlphaScreen in HEK cells; assay type: cell-based; details: Table 5
T1 construct: expressed in transfected cells
Experimental: (§1) Stimulation of adenylate cyclase following receptor activation is a widely used measure of functional activity for a number of receptor systems. The functional assay to measure cyclic AMP (cAMP) utilises human embryonic kidney (HEK) cells that stably express the human melanocortin MCR1, MCR3 or MCR4 receptor. Activation of MCR1, MCR3 or MCR4 receptors stimulates adenylate cyclase, generating cAMP, which is measured using AlphaScreen™ (PerkinElmer assay kits.
(§2) The AlphaScreen™ cAMP assay kit consists of ‘donor beads’, ‘acceptor beads’, and biotinylated cAMP which links the different beads together. Excitation of this linked complex at […] in the Fusion™-α microplate analyser results in light emission between […].
(§3) (i) MCR1. MCR3 and MCR4 Standard Functional Assay Methodology [Assay Protocol A, B AND C Respectively]
(§4) Determination of activity against the human MCR1, MCR3 and MCR4 receptor subtypes was carried out for compounds according to the present invention using three immortalised human embryonic kidney (HEK) cell lines that had been biologically engineered to express the human melanocortin MCR1, MCR3 or MCR4 receptor subtypes. These cell lines were engineered using protocols akin to those outlined by Gouarderes et al (Gouarderes, C., (2002) Neuroscience, 115(2); 349-361).
(§5) Such-compound-induced activation of these MCR1, MCR3 or MCR4 receptors lead to the stimulation of the cellular enzyme adenylate cyclase, which in turn lead to the cellular generation, and intra-cellular accumulation, of cyclic adenosine monophosphate (cAMP). […] Intracellular levels of cAMP were quantified using the commercially available AlphaScreen™ assay kits from PerkinElmer. A detailed assay protocol and an explanation of the concept underlying this kit is available through the PerkinElmer website (www.perkinelmer.com). The protocol listed below provides a summary this information.
(§6) The quantity of intracellular cAMP produced by compound-induced activation of the MCR1, MCR3 and MCR4 receptors in these three cell lines was measured using a Fusion™-α microplate analyser set to stimulate at a wavelength of 680 nm and to measure the energy emitted at wave lengths between […]. Compound-induced increases in MCR1, MCR3 or MCR4 receptor activation were subsequently quantified as a decrease in the quantity of light emitted at wavelengths between […]. Data analysis was subsequently performed using a curve-fitting program and the apparent potency of the test compound (expressed as an EC50 and defined as the effective compound concentration that elicited 50% of the maximum compound-induced response) extrapolated from the fitted curve.
Stimulation buffer (as per AlphaScreen™ protocol): HBSS supplemented with 0.5 mM IBMX, 5 mM HEPES, 0.1% (w/v) BSA and 10 mM MgCl2. […]

[2] = target: T2, human MCR3 receptor (Homo sapiens, UniProt P41968); test: MCR3 standard functional assay (Protocol B): cAMP AlphaScreen in HEK cells; assay type: cell-based; details: Table 5
T2 construct: expressed in transfected cells
Experimental: as §1, §2, §3, §4, §5, §6
(§7) Stimulation buffer (as per AlphaScreen™ protocol): HBSS supplemented with 0.5 mM IBMX, 5 mM HEPES, 0.1% (w/v) BSA and 10 mM MgCl2.
(§8) Lysis buffer (as per AlphaScreen™ protocol): 5 mM HEPES solution supplemented with 0.1% (w/v) BSA and 0.3% (v/v) Tween-20.
(§9) Detection mix (as per AlphaScreen™ protocol): Lysis buffer supplemented with the biotinylated cAMP (10 nM) and Donor beads (10 μg/ml) as supplied in the AlphaScreenT cAMP assay kit.
(§10) For the MCR1, MCR3 and MCR4 standard functional assay methodologies compounds were initially dissolved in DMSO to give a compound concentration of 4 mM and then further diluted for the assay in stimulation buffer to give actual concentrations 2-fold greater than that desired as the final assay concentration.
(§11) The three HEK cell lines, as detailed hereinbefore, expressing the human MCR1, MCR3 or MCR4 receptor subtypes were grown in T225 vent cap flasks containing 50 ml of growth medium (DMEM supplemented with 10% (v/v) FCS, 2 mM L-Glutamine, 25 mM HEPES and 1.0 mg/ml Geneticin) and maintained in a cell incubator at a temperature of 37° C. and in an environment containing 5% CO2. Cells were harvested when they reached 80-90% confluency by first removing the existing growth medium and then washing with PBS that had been pre-warmed to a temperature of 37° C. […]

[3] = target: T3, human MCR1 receptor (Homo sapiens, UniProt Q01726); test: MCR1 standard functional assay (Protocol A): cAMP AlphaScreen in HEK cells; assay type: cell-based; details: for EC50: Protocol A
T3 construct: expressed in transfected cells
Experimental: as §1, §2, §3, §4, §5, §6, §7, §8, §9, §10, §11

[4] = test system: spontaneous penile erection in the conscious rat; test: Spontaneous penile erection in the conscious rat (telemetric intracavernosal pressure); assay type: in vivo; details: for maximum effective dose: s.c.
Experimental: MCR4 in vivo data for the compound of Example 1 was assessed by selective activation of melanocortin MCR4 receptors using the methodology assessing spontaneous penile erection in the conscious rat.
Erectile responses were recorded by measuring intracavernosal pressure using a surgically implanted telemetric device (TA11PA-C40, 8 mm catheter, modified 3 mm tip, available from Data Sciences International Inc.). An increase in intracavernosal pressure is indicative of penile erection, as an increase in intracavernosal pressure is an essential hemodynamic event during the initiation and maintenance of penile erection. The specific details of the surgical procedures, data acquisition and analysis used herein to measure increases in intracavernosal pressure can be found in detail in Bernabe J., Rampin O., Sachs B. D., Giuliano F., “Intracavernous pressure during erection in rats: an integrative approach based on telemetric recording”, Am. J. Physiol. 1999 February; 276 (2 Pt 2):R441-9.
The test animals (rats) (during the dark cycle) were habituated for 18 hours before baseline assessment of erectile function. Prior to administration of the test agent the baseline erectile activity (B) was assessed for the vehicle for 10 minutes using telemetric recording of intracavernosal pressure. Following subcutaneous administration of the compound of Example 1 (in the same vehicle), penile erections were assessed (using telemetric recording of intracavernosal pressure) over 10 minute periods, at intervals of 30, 60, and 90 minutes post dosage.

T3 sequence (Q01726 whole entry): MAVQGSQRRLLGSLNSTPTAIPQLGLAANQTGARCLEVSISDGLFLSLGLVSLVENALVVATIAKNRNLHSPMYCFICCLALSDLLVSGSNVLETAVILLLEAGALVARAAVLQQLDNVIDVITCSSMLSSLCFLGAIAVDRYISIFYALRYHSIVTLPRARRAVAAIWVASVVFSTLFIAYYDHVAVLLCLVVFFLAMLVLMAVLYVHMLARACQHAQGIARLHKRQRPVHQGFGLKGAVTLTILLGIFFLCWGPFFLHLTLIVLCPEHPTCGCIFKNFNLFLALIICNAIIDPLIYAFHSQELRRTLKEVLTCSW
T2 sequence (P41968 whole entry): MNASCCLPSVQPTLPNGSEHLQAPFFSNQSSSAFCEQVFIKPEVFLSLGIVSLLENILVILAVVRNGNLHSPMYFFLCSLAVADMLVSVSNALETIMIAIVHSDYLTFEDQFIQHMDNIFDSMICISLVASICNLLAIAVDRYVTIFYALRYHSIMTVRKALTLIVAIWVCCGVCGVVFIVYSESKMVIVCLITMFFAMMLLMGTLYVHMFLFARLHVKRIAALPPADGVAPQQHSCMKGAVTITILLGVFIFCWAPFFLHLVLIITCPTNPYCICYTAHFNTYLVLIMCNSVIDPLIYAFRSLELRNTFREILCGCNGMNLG
T1 sequence (P32245 whole entry): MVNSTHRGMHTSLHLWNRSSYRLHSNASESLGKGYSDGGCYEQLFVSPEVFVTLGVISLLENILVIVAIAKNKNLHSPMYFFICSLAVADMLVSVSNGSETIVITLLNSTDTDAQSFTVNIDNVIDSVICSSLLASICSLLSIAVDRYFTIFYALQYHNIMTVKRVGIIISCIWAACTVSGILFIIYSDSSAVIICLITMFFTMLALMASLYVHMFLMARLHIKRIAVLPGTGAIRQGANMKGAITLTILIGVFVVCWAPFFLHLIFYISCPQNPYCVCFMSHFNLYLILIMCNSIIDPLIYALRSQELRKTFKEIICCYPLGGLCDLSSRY

Selectivity MCR1/MCR4 ([3]; Table 6, MCR4 by Protocol E) | EC50 ([3]; Table 6) [nM] | SMILES | other results
125 |  | C[C@@H]1CN(C(=O)[C@@H]2CN(C(C)(C)C)C[C@H]2c2ccc(F)cc2F)C[C@H](C)[C@@]1(O)c1ccccc1 [Example 1, (3R,4R,5S)-1-{[(3S,4R)-1-tert-Butyl-4-(24-difluorophenyl)pyrrolidin-3-yl]carbonyl}-3,5-dimethyl-4-phenylpiperidin-4-ol] | EC50 [1]: 25 nM; Selectivity MCR3/MCR4 ([2]; MCR4 by Protocol C): 56; EC50 ([2]; Protocol B): 1390 nM; Selectivity MCR1/MCR4 ([3]; Table 5, MCR4 by Protocol C): 324; EC50 ([3]; Table 5): 8100 nM; maximum effective dose ([4]; additional, more detailed study, FIG. 2, conscious rat): 10 µg/kg; erectile activity (number of erections over a 10 minute period) versus baseline (treatment vehicle) ([4]; additional, more detailed study, FIG. 2, starting 30 minutes post dosage, 1, 10 and 100 μg/kg s.c.): increases the erectile activity versus baseline erectile activity; number of penile erections ([4]; conscious rat, subcutaneously (s.c.)): dose dependent increase in the number of penile erections; maximum effective dose ([4]; preliminary study, FIG. 1, conscious rat): 1 µg/kg; erectile activity (number of erections over a 10 minute period) versus baseline ([4]; preliminary study, FIG. 1, starting 60 minutes post dosage, 1, 10 and 100 μg/kg s.c.): increases the erectile activity versus baseline erectile activity
125 | 1200 | C[C@@H]1CN(C(=O)[C@@H]2CN(C(C)(C)C)C[C@H]2c2ccc(F)cc2F)C[C@H](C)[C@@]1(O)c1ccccc1.Cl [Example 5, (3R,4R,5S)-1-{[(3S,4R)-1-tert-Butyl-4-(2,4-difluorophenyl)pyrrolidin-3-yl]carbonyl}-3,5-dimethyl-4-phenylpiperidin-4-ol hydrochloride] | 
9 | 667 | C[C@@H]1CN(C(=O)[C@@H]2CNC[C@H]2c2ccc(F)cc2F)C[C@H](C)[C@@]1(O)c1ccc(F)cc1.Cl [Example 12, (3R,4R,5S)-1-{[(3S,4R)-4-(2,4-difluorophenyl)pyrrolidin-3-yl]carbonyl}-4-(4-fluorophenyl)-3,5-dimethylpiperidin-4-ol hydrochloride] | 
311 | 8400 | C[C@@H]1CN(C(=O)[C@@H]2CN(C(C)(C)C)C[C@H]2c2ccc(F)cc2F)C[C@H](C)[C@@]1(O)c1ccc(Cl)cc1.Cl [Example 13, (3R,4R,5S)-1-{[(3S,4R)-1-tert-butyl-4-(2,4-difluorophenyl)pyrrolidin-3-yl]carbonyl}-4-(4-chlorophenyl)-3,5-dimethylpiperidin-4-ol hydrochloride] | 
2969 | 10700 | C[C@@H]1CN(C(=O)[C@@H]2CN(c3ccccn3)C[C@H]2c2ccc(F)cc2F)C[C@H](C)[C@@]1(O)c1ccccc1.Cl [Example 31, (3R,4R,5S)-1-{[(3S,4R)-4-(2,4-difluorophenyl)-1-pyridin-2-ylpyrrolidin-3-yl]carbonyl}-3,5-dimethyl-4-phenylpiperidin-4-ol hydrochloride] | 
847 | 1270 | C[C@@H]1CN(C(=O)[C@@H]2CN(c3cccnn3)C[C@H]2c2ccc(F)cc2F)C[C@H](C)[C@@]1(O)c1ccccc1.Cl [Example 35, (3R,4R,5S)-1-{[(3S,4R)-4-(2,4-difluorophenyl)-1-pyridazin-3-ylpyrrolidin-3-yl]carbonyl}-3,5-dimethyl-4-phenylpiperidin-4-ol hydrochloride] | 

SMILES | Selectivity MCR1/MCR4 ([3]; Table 6, MCR4 by Protocol E) | EC50 ([3]; Table 6) [nM] | other results
CC(C)N1C[C@@H](C(=O)N2C[C@@H](C)[C@](O)(c3ccccc3)[C@@H](C)C2)[C@H](c2ccc(F)cc2F)C1.Cl [Example 6, (3R,4R,5S)-1-{[(3S,4R)-4-(2,4-Difluorophenyl)-1-isopropylpyrrolidin-3-yl]carbonyl}-3,5-dimethyl-4-phenylpiperidin-4-ol hydrochloride] | 28 | 541 | 
